No end group written: not given here.
Experiments:
[1] = preparation of 2 mM stock solution; dissolved with PBS containing 4% DMSO
Experimental: First, 2 mM stock solutions of CAMPs were prepared in PBS, except for the CAMPs pept_1 and pept_2. […] Its 2 mM solution was made up using PBS containing 4% DMSO (PBS/DMSO), which gave a final DMSO concentration not higher than 0.2% in any of experiments. […] Therefore, negative controls containing relevant concentrations of DMSO were run for pept_1 and pept_2, and DMSO contribution was eliminated by subtracting the measured value in the negative control samples from that in the test samples.

erythrocytes [2] = assay: Hemolysis assay, erythrocytes in PBS; format: cell-based, human; settings: 0.5 h, 37 °C
Experimental: Erythrocytes were incubated (0.5 h, 37 °C) with different CAMP concentrations ranging from 6.25 μM to 100 μM. Incubation conditions chosen were similar to those used in other studies. Following incubation, the samples were centrifuged, and the supernatant analyzed spectrophotometrically for hemoglobin at 414 nm and 540 nm. Absorption at 414 nm provides higher sensitivity. The results were the same no matter which wavelength was used to monitor for hemoglobin.
(§1) The hemolytic activity of CAMPs was determined using a hemolysis assay measuring hemoglobin released from damaged cells. A working erythrocyte suspension (in PBS) was prepared so that its ten-fold dilution gave an optical density of 0.4 at 800 nm. This working suspension corresponded to a cell density of about 30 × 10^6 cells/mL. Aliquots of 125 μL of CAMP solutions of different concentrations were added to Eppendorf tubes. […] The supernatant (200 μL) was transferred to the wells of a microplate, and the absorbance of hemoglobin was measured by a Thermo Electron Multiskan Ascent microplate reader (Thermo Fisher Scientific Inc., Waltham, MA, USA), with a test wavelength of 414 nm as well as 540 nm and a background wavelength of 690 nm. The hemolysis percentage was calculated using the following equation: Hemolysis (%) = {(sample absorbance − negative control)/(positive control − negative control)} × 100.

erythrocytes [3] = assay: Hemolysis assay in the presence of human serum albumin (HSA); format: cell-based; settings: 50 μM peptide, 50 μM HSA, 0.5 h, 37 °C
Experimental: Given that the normal HSA concentration in plasma is 500–700 μM and the dilution of plasma in the final, cell-containing samples was 1:10, a final HSA concentration of 50 μM was applied. Then, 100 μM CAMP working solutions were made up in PBS or PBS containing 100 μM or 70 μM HSA to give final concentrations of 50 μM CAMP and 50 μM or 35 μM HSA.
as §1

Escherichia coli = assay: MIC determination, microtiter dilution; format: cell-based, Escherichia coli str. K12 substr. MG1655; settings: present study, two-fold dilution series in MHB, 37 °C, 24 h, turbidity at 560 nm, mean of three independent experiments
Experimental: CAMPs were designed and synthesized as described previously in our works. The minimum inhibitory concentrations (MICs) for the Gram-negative bacterium Escherichia coli and Gram-positive bacterium Bacillus subtilis were determined earlier or in the present study. The MIC values for Escherichia coli were the same or higher than those for Bacillus subtilis. The CAMP concentrations tested were in the range up to 100 μM.
Escherichia coli str. K12 substr. MG1655 (Invitrogen) and Bacilus subtilis str. 168HT (Vavilov Institute of General Genetics, Russian Academy of Sciences, Moscow, Russia) were grown in Luria–Bertani broth (Difco, BD Difco, Thermo Fisher Scientific Inc., Waltham, MA, USA) according to standard procedure. Bacteria were stored with 10% glycerol at −70 °C until use. MIC determination was carried out by growing bacteria in 96-well microtitration plates in the presence of a two-fold dilution series of the peptide using the standard microtiter dilution method. Briefly, single bacterial clones were cultured overnight in Mueller–Hinton broth (MHB, BD Difco, Thermo Fisher Scientific Inc., Waltham, MA, USA) at 150 rpm and 37 °C, then transferred to fresh MHB and cultured until the logarithmic growth phase. […] After incubation at 37 °C for 24 h, the antimicrobial susceptibility was estimated by turbidity measurement at 560 nm using a microplate reader. […]

Substance: FRIMRILRVLKL-NH2 [pept_1]
- Solubility in PBS [1]: poorly soluble in PBS
- EC50 (erythrocytes [2]; hemolysis assay, rough estimate, read-out: Concentration at which 50% lysis was achieved, erythrocytes): 65 µM
- Inhibition of CAMP-induced hemolysis by HSA (erythrocytes [3]): nearly completely

Substance: FRIMRILRVLK-NH2 [pept_2]
- Hemolysis (erythrocytes [2]; 100 μM peptide in PBS, no plasma, Triton X-100 = 100%): 10–15%
- MIC (E. coli) (Escherichia coli): 10 µM

From publication PMC9503446, “Effects of Medicinal Leech-Related Cationic Antimicrobial Peptides on Human Blood Cells and Plasma” (Molecules, 2022)
